Counter-ions that a name gives are not always drawn. Like-named read-outs stand apart in the source and are kept apart here.
Key:
TLR8 = molecular target: T1, TLR8 (Homo sapiens, UniProt Q9NR97); experiment: In vitro human TLR8 binding reporter assay (HEK-Blue, NF-kB/AP1-inducible SEAP); format: cell-based; details: activity range class, read-out: TLR8 Agonist EC50
T1 construct: human HEK-Blue cells co-expressing a TLR7 or TLR8 gene
T1 sequence (Q9NR97 27-1041): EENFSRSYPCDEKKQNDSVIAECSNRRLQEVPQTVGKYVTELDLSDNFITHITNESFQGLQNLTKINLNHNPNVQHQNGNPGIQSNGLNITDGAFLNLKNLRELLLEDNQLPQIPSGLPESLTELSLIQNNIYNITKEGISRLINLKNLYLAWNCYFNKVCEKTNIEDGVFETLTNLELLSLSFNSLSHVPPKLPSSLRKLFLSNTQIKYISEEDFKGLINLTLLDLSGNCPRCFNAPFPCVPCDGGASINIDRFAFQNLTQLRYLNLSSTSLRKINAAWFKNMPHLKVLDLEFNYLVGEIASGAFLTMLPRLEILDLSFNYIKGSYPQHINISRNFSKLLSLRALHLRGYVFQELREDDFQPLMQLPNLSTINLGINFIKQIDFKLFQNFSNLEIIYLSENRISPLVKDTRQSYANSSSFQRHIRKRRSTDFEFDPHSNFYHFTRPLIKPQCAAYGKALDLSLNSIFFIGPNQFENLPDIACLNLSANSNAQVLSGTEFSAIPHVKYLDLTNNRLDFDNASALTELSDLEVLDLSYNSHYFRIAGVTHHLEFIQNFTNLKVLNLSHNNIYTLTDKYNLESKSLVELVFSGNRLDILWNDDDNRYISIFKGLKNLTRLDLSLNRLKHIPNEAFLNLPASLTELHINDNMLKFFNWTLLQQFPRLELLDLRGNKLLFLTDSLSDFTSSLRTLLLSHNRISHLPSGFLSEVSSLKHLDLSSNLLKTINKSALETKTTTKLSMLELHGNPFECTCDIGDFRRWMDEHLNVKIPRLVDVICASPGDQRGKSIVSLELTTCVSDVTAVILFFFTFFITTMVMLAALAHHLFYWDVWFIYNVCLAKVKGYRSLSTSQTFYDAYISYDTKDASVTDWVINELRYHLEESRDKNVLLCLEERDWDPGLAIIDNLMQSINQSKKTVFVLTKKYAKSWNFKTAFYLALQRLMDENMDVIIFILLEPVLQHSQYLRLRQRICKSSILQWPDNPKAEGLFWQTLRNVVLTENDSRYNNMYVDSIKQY
In short: (§1)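 Cells are seeded and grown for 24 h. Compounds or DMSO are then added and incubated 18 h at 37 °C. Quanti-Blue is added, and SEAP is read after thirty minutes. EC50 values are normalized, with RLU from 50 μM reference standard setting 100% Ymax.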

TLR7 = molecular target: T2, TLR7 (Homo sapiens, UniProt Q9NYK1); experiment: In vitro human TLR7 binding reporter assay (HEK-Blue, NF-kB/AP1-inducible SEAP); format: cell-based; details: activity range class, read-out: TLR7 Agonist EC50
T2 construct: human HEK-Blue cells co-expressing a TLR7 or TLR8 gene
T2 sequence (Q9NYK1 27-1049): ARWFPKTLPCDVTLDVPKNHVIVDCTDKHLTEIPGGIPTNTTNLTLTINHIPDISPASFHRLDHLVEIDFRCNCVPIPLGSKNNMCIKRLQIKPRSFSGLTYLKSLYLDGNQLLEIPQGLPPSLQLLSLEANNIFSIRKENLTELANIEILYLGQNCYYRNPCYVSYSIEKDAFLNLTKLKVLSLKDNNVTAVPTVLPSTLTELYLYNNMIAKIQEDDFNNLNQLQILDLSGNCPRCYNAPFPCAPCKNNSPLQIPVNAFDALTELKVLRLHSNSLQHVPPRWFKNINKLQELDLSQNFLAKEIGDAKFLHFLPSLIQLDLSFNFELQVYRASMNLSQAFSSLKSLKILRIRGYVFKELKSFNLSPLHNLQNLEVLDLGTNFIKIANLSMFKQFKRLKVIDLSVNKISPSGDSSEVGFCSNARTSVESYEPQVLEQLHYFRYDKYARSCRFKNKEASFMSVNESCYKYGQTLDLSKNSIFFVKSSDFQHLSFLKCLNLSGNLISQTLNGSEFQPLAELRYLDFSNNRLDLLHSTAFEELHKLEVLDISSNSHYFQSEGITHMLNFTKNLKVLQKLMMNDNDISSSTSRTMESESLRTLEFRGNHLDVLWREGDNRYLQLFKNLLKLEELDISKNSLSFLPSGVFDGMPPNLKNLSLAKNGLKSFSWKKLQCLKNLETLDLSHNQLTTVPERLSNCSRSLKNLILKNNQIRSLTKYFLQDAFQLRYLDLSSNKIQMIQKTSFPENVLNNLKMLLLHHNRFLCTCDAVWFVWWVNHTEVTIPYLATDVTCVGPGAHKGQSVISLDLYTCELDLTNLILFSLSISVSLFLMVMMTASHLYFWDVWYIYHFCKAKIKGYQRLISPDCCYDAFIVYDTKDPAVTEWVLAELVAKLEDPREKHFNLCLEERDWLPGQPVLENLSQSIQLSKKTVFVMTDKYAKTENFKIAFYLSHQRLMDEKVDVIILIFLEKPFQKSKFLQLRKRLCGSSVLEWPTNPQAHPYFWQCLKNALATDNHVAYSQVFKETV
In short: as §1

THP-1 cells = experiment: Measurement of IL-1β production, hTRF protocol (second alternative procedure), THP-1 cells; format: cell-based, human; details: human, read-out: NLRP3 hILIB EC50
In short: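 Compounds, dilution series starting at a final 10 μM, were incubated 2 hours at 37° C with PMA-differentiated THP-1 cells (50 ng/ml overnight; 50,000 cells/well, 2% FBS RPMI). Released IL-1β quantified in supernatant by hTRF kit with 1:40 antibody dilution, 4° C overnight, 665/615 nm ratio.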

[1] = Homo sapiens, THP-1, IL-1β production

| SMILES | EC50 (TLR8) | EC50 (TLR7) | EC50 (THP-1 cells; [1]) | EC50 (THP-1 cells; IL-1β production) |
| --- | --- | --- | --- | --- |
| CCN1CCOCC1Cn1cc2c(N)nc3cc(-c4ccn[nH]4)ccc3c2n1 (stereo not drawn) [Example 263] | > 100 µM | > 100 µM | 1.66 µM |  |
| CC(C)(F)C(=O)N1CCOCC1Cn1cc2c(N)nc3cc(-c4ccn[nH]4)ccc3c2n1 (stereo not drawn) [Example 264] | > 100 µM | > 100 µM | 0.99 µM |  |
| COC1CCCN(CCn2cc3c(N)nc4cc(-c5ccn[nH]5)ccc4c3n2)C1 (stereo not drawn) [Example 265] | > 100 µM | > 100 µM | 2.47 µM |  |
| COC1CCN(CCn2cc3c(N)nc4cc(-c5ccn[nH]5)ccc4c3n2)C1 (stereo not drawn) [Example 266] | > 100 µM | > 100 µM | 2.62 µM |  |
| COC1CN(CCn2cc3c(N)nc4cc(-c5ccn[nH]5)ccc4c3n2)C1 [Example 268] | > 100 µM | > 100 µM | 4.5 µM |  |
| CC(=O)N1CCOCC1Cn1cc2c(N)nc3cc(-c4ccn[nH]4)ccc3c2n1 (stereo not drawn) [Example 269] | > 100 µM | > 100 µM | 4.38 µM |  |
| CC(Cn1cc2c(N)nc3cc(-c4ccn[nH]4)ccc3c2n1)NC(=O)C(C)(C)C#N (stereo not drawn) [Example 270] | > 100 µM | > 100 µM | 5.18 µM |  |
| Nc1nc2cc(-c3ccn[nH]3)ccc2c2nn(CCN3CCC3)cc12 [Example 271] | > 100 µM | > 100 µM | 1.07 µM |  |
| CCN(CCn1cc2c(N)nc3cc(-c4ccn[nH]4)ccc3c2n1)C(C)=O [Example 272] | > 100 µM | > 100 µM | 5.13 µM |  |
| CCN1CCCC1Cn1cc2c(N)nc3cc(-c4ccn[nH]4)ccc3c2n1 (stereo not drawn) [Example 274] | > 100 µM | > 100 µM | 0.6 µM |  |
| CC(=O)N1CCN(CCn2cc3c(N)nc4cc(-c5ccn[nH]5)ccc4c3n2)CC1 [Example 276] | > 100 µM | > 100 µM | 31.7 µM |  |
| Nc1nc2cc(-c3ccn[nH]3)ccc2c2nn(CC3CCCN3)cc12 (stereo not drawn) [Example 278] | > 100 µM | > 100 µM | 0.75 µM |  |
| Nc1nc2cc(-c3ccn[nH]3)ccc2c2nn(CCNC3CCC3)cc12 [Example 280] | > 100 µM | > 100 µM | 1.72 µM |  |
| Nc1nc2cc(-c3ccn[nH]3)ccc2c2cn(CCNC(=O)c3ccccn3)cc12 [Example 286, N-[2-[4-amino-7-(1H-pyrazol-5-yl)-2H-pyrrolo[3,4-c]quinolin-2-yl]ethyl]pyridine-2-carboxamide] | > 100 µM | > 100 µM | 0.41 µM |  |
| CO[C@@H](CO)Cn1cc2c(N)nc3cc(-c4cc[nH]n4)ccc3c2n1 [Example 289, (2R)-3-[4-amino-7-(1H-pyrazol-3-yl)-2H-pyrazolo[4,3-c]quinolin-2-yl]-2-methoxypropan-1-ol, HCl] | > 100 µM | 1 to 20 µM |  | 0.28 µM |
| CC(=O)NCCn1cc2c(N)nc3cc(-c4cc[nH]n4)ccc3c2n1 [Example 290] | > 100 µM | > 100 µM | 0.87 µM |  |
| N#CC1(C(=O)NCCn2cc3c(N)nc4cc(-c5cc[nH]n5)ccc4c3n2)CC1 [Example 291] | > 100 µM | > 100 µM | 4.65 µM |  |
| CC(=O)N[C@@H](CO)Cn1cc2c(N)nc3cc(-c4cc[nH]n4)ccc3c2n1 [Example 292] | > 100 µM | > 100 µM | 0.89 µM |  |
| CC(C)(Cn1cc2c(N)nc3cc(-c4cc[nH]n4)ccc3c2n1)NC(=O)c1ccc(F)cn1 [Example 293] | > 100 µM | > 100 µM | 0.6 µM |  |
| CC(Cn1cc2c(N)nc3cc(-c4ccn[nH]4)ccc3c2n1)NC(=O)c1ccc(F)cn1 (stereo not drawn) [Example 294] | > 100 µM | > 100 µM | 0.43 µM |  |
| CC(Cn1cc2c(N)nc3cc(-c4ccn[nH]4)ccc3c2n1)NC(=O)c1cc(F)ccn1 (stereo not drawn) [Example 295] | > 100 µM | > 100 µM | 0.42 µM |  |
| CCOCC(=O)NC(C)Cn1cc2c(N)nc3cc(-c4ccn[nH]4)ccc3c2n1 (stereo not drawn) [Example 298] | > 100 µM | > 100 µM | 4.32 µM |  |
| CC(Cn1ncc2c(N)nc3cc(-c4cc[nH]n4)ccc3c21)NS(C)(=O)=O (stereo not drawn) [Example 302] | > 100 µM | > 100 µM | 3.49 µM |  |

Continued, values first:

| EC50 (TLR8) | EC50 (TLR7) | EC50 (THP-1 cells; [1]) | EC50 (THP-1 cells; IL-1β production) | SMILES |
| --- | --- | --- | --- | --- |
| > 100 µM | > 100 µM | 1.07 µM |  | CC(C)(N)Cn1cc2c(N)nc3cc(-c4ccn[nH]4)ccc3c2n1 [Example 267] |
| > 100 µM | > 100 µM | 5.16 µM |  | CC(Cn1cc2c(N)nc3cc(-c4ccn[nH]4)ccc3c2n1)NC(=O)C(C)(C)F (stereo not drawn) [Example 273] |
| > 100 µM | > 100 µM | 1.73 µM |  | CC(C)NCCn1cc2c(N)nc3cc(-c4ccn[nH]4)ccc3c2n1 [Example 275] |
| > 100 µM | > 100 µM | 2.33 µM |  | CNCCn1cc2c(N)nc3cc(-c4ccn[nH]4)ccc3c2n1 [Example 277] |
| > 100 µM | > 100 µM | 1.13 µM |  | CCNCCn1cc2c(N)nc3cc(-c4ccn[nH]4)ccc3c2n1 [Example 279] |
| > 100 µM | > 100 µM | 0.24 µM |  | CC(CCO)n1cc2c(N)nc3cc(-c4ccn[nH]4)ccc3c2n1 (stereo not drawn) [Example 281] |
| > 100 µM | > 100 µM | 0.1 µM |  | CC(O)Cn1cc2c(N)nc3cc(-c4ccn[nH]4)ccc3c2n1 (stereo not drawn) [Example 282] |
| > 100 µM | > 100 µM | 0.12 µM |  | CC(C)(O)Cn1cc2c(N)nc3cc(-c4ccn[nH]4)ccc3c2n1 [Example 283] |
| > 100 µM | > 100 µM | 0.25 µM |  | CC(O)CCn1cc2c(N)nc3cc(-c4ccn[nH]4)ccc3c2n1 (stereo not drawn) [Example 284] |
| > 100 µM | > 100 µM | 0.63 µM |  | CC(C)(O)CCn1cc2c(N)nc3cc(-c4ccn[nH]4)ccc3c2n1 [Example 285] |
| > 100 µM | > 100 µM | 1.7 µM |  | COCC(=O)NC(C)Cn1cc2c(N)nc3cc(-c4ccn[nH]4)ccc3c2n1 (stereo not drawn) [Example 296] |
| > 100 µM | > 100 µM | 2.83 µM |  | CCC(=O)NC(C)Cn1cc2c(N)nc3cc(-c4ccn[nH]4)ccc3c2n1 (stereo not drawn) [Example 297] |
| > 100 µM | > 100 µM | 1.4 µM |  | CC(Cn1cc2c(N)nc3cc(-c4ccn[nH]4)ccc3c2n1)NS(C)(=O)=O (stereo not drawn) [Example 301] |

Reference: patent US12037344B2, “NLRP3 modulators” (INNATE TUMOR IMMUNITY, INC., priority 2018, dated 2024)
